Test results as given in patent publication US9918989B2, “Combination therapies for malaria” (The Regents of the University of California, priority 2013, dated 2018).
Entries after “also recorded” stand apart in the source; their conditions may differ.

How the values were obtained:
[1] = system: Plasmodium falciparum; experiment: P. falciparum growth in vitro, flow cytometry; assay type: cell-based; conditions: 1 μM or 10 μM (up to 10 μM), 48 h, relative to vehicle control
[2] = system: anti-parasite genes; experiment: Midgut expression of anti-parasite/immune genes, quantitative PCR; assay type: in vivo, Anopheles stephensi; conditions: BIRB 796 with killed lysate of P. falciparum; 6 h post-feeding
[3] = system: A. freeborni; experiment: Mosquito lifespan with inhibitor in water or bloodmeal; assay type: in vivo, Anopheles freeborni; conditions: 1 μM or 10 μM daily in water or once weekly via bloodmeal
[4] = system: A. stephensi; experiment: as above; assay type: in vivo, Anopheles stephensi; conditions: 1 μM or 10 μM daily in water or once weekly via bloodmeal
[5] = system: Plasmodium falciparum; experiment: P. falciparum development (oocysts) in A. stephensi after inhibitor-supplemented bloodmeal; assay type: in vivo, Anopheles stephensi; conditions: 10 μM in bloodmeal
Protocol: Midguts were dissected and oocysts were counted at 10 days following infection. Dots in FIG. 3A and FIG. 3C represent oocyst numbers in one midgut, while percentage positive midguts or percentage of midguts with at least one oocyst are represented as means in FIG. 3B and FIG. 3D. Mean oocysts per midgut (lines, numbers on graph) were analyzed by ANOVA (alpha=0.05) for overall significance and by Student-Neuman-Keuls for pairwise comparisons using Graphpad Prism version 4.0 (San Diego, Calif.). Prevalences of mosquito infection (indicated on graph) were analyzed by chi-square (alpha=0.05).

[6] = system: Anopheles stephensi p38 MAPK; experiment: MK2 phosphorylation in LPS-stimulated ASE cells, western blot; assay type: cell-based; conditions: ASE cells pre-incubated with 10 μM inhibitor, 2 h later 1 μg/ml LPS

Row | Compound | P. falciparum growth in vitro (parasitemia) [1] | midgut immune gene expression levels [2] | impact on lifespan [3] | impact on lifespan [4] | infection prevalence in A. stephensi ([5]; midguts with at least one oocyst at 10 days) | P. falciparum oocysts/midgut ([5]; oocysts counted at 10 days) | p-MK2 levels (phosphorylation of MK2) [6]
1 | Cc1ccc(-n2nc(C(C)(C)C)cc2NC(=O)Nc2ccc(OCCN3CCOCC3)c3ccccc23)cc1 [BIRB 796, 1-[5-tert-butyl-2-(4-methylphenyl)pyrazol-3-yl]-3-[4-(2-morpholin-4-ylethoxy)naphthalen-1-yl]urea] | Neither inhibitor significantly altered parasite growth | significantly different from controls | – | – | – | – | –
2 | Oc1c2ccccc2c2c3c(cccc13)N=N2 [SP600125, 1;9-Pyrazoloanthrone] | – | – | no negative impact | no negative impact | – | – | –
3 | C[S+]([O-])c1ccc(-c2nc(-c3ccc(F)cc3)c(-c3ccncc3)[nH]2)cc1 (centres unmarked) [SB203580, 4-[4-(4-fluorophenyl)-2-(4-methylsulfinylphenyl)-1H-imidazol-5-yl]pyridine] | Neither inhibitor significantly altered parasite growth; also recorded: no such effects | – | – | – | significantly reduced | significantly reduced | undetectable
